What follows are substances tested against T1, 20S proteasome, β5 subunit (chymotrypsin-like activity) (Homo sapiens, UniProt P28074).
T1 sequence (P28074 60-263): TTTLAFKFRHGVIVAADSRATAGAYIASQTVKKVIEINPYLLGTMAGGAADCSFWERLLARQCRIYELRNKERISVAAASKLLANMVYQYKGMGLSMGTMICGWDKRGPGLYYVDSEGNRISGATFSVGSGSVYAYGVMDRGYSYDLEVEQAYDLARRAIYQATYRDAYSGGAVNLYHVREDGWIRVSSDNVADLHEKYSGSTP
Format: biochemical
Work on [Cd(C7H4N2O2)(C8H6O2)2]·2H2O [Cd3] yielded an IC50 of 3300 nM. For [Cd2(C12H12O2N)4(H2O)2]·2H2O [Cd1], the IC50 was 2600 nM. [Cd2(C11H10O2N)4(H2O)2]·2H2O showed an IC50 of 3000 nM.

Reference: paper PMC3648619 (Journal of inorganic biochemistry, 2013)
